Measurements from PMC6855250 (Nature, 2019).

Molecular target: SidJ∆N99-CaM (Legionella pneumophila, UniProt Q5ZTK6)
Sequence (Q5ZTK6 whole entry, looked up): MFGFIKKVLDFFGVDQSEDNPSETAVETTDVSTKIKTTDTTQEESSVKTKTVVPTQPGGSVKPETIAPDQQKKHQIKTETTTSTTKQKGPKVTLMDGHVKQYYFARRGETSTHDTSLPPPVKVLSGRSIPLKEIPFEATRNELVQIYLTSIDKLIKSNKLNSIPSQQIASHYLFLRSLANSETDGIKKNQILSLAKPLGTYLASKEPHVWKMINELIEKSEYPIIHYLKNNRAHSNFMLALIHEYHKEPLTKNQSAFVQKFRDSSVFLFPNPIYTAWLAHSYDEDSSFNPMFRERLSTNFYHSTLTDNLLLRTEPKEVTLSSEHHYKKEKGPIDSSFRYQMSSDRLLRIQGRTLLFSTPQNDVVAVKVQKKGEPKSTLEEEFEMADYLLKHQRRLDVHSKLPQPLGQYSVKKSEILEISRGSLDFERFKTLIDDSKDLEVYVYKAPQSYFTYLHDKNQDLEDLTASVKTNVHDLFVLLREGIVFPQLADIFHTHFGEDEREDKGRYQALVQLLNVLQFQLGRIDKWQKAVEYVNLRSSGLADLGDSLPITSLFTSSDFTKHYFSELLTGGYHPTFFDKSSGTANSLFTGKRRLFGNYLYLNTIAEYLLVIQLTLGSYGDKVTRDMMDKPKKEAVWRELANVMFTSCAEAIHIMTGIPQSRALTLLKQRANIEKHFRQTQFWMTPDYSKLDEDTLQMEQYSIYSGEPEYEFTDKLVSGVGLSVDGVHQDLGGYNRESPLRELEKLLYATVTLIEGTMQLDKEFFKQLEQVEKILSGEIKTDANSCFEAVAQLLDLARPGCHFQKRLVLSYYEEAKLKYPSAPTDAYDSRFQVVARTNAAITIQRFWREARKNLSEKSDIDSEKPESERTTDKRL

SMILES: Nc1ncnc2c1ncn2[C@@H]1O[C@H](COP(=O)(O)O)[C@@H](O)[C@H]1O [AMP]
- X-ray crystal structure, 3.11 Å: We observed an AMP moiety bound in a pocket formed in the CD
